Experimental data published in patent publication US20250049778A1, “CRYSTALLINE FORM OF GLP-1 RECEPTOR AGONIST AND PREPARATION METHOD THEREFOR” (JIANGSU HENGRUI PHARMACEUTICALS CO., LTD., priority 2021, published 2025).

Assays:
Assay type in all cases: physicochemical
[1] = Hygroscopicity of crystal forms by dynamic vapor sorption (DVS) at 25° C.; settings: for Crystal form after DVS: two cycles
Procedure: Surface Measurement Systems advantage 2 is used for detection at 25° C. The humidity is 50%-95%-0%-95%-50% RH. The step is 10%. The criterion is that the mass change dM/dT for each step is less than 0.002%. TMAX is 360 min. Two cycles are carried out.
Surface Measurement Systems intrinsic DVS was used at 25° C. The observed humidity ranged from 0% to 95%. The step was 10%. The criterion was that the mass change dM/dT for each step was less than 0.002%. TMAX was 360 min. Two cycles were carried out.

[2] = Stability of crystal forms placed open under illumination, high temperature and high humidity, 30 days; settings: for Physical and chemical stability (summary): illumination, 40° C. and 60° C., 75% RH and 92.5% RH
Source text: The sampling and investigation period was 30 days.

[3] = Long-term/accelerated stability, sealed with aluminum foil bag
Source text: The results were as shown below.

[4] = Illumination (4500 Lux), 5 days
[5] = Illumination (4500 Lux), 10 days
[6] = Illumination (4500 Lux), 30 days

O=C(O)c1ccc2nc(CN3CCC(c4cccc5c4O[C@@H](c4ccc(Cl)cc4F)CO5)CC3)n(C[C@@H]3CCO3)c2c1 [Crystal form A of Compound A, 2-((4-((S)-3-(4-chloro-2-fluorophenyl)-2,3-dihydrobenzo[b][1,4]dioxan-5-yl)piperidin-1-yl)methyl)-1-(((S)-oxetan-2-yl)methyl)-1H-benzo[d]imidazole-6-carboxylic acid]
Hygroscopic weight gain 0.0% RH to 80.0% RH [1]: 0.65%
Crystal form after DVS [1]: Unchanged
Purity % ([2]; 40° C., 5 days): 98.8%
Purity % ([2]; 40° C., 10 days): 98.8%
Purity % ([2]; 40° C., 30 days): 98.8%
Purity % ([2]; 60° C., 5 days): 98.8%
Purity % ([2]; 60° C., 10 days): 98.7%
Purity % ([2]; 60° C., 30 days): 98.8%
Purity % ([2]; 75% RH, 5 days): 98.7%
Purity % ([2]; 75% RH, 10 days): 98.7%
Purity % ([2]; 75% RH, 30 days): 98.7%
Purity % ([2]; 92.5% RH, 5 days): 98.8%
Purity % ([2]; 92.5% RH, 10 days): 98.7%
Purity % ([2]; 92.5% RH, 30 days): 98.8%
Purity % [2, 4]: 98.7%
Purity % [2, 5]: 98.7%
Purity % [2, 6]: 98.8%
Purity % ([2]; Initial condition, 0 days): 98.7%
Physical and chemical stability (summary) ([2]; 30 days): good physical and chemical stability
Purity % ([3]; 25° C./60% RH, 1 month): 99.5%
Purity % ([3]; 25° C./60% RH, 3 months): 99.5%
Purity % ([3]; 25° C./60% RH, 6 months): 99.5%
Crystal form ([3]; 25° C./60% RH, up to 6 months): Unchanged
Purity % ([3]; 40° C./75% RH, 1 month): 99.5%
Purity % ([3]; 40° C./75% RH, 3 months): 99.5%
Purity % ([3]; 40° C./75% RH, 6 months): 99.5%
Crystal form ([3]; 40° C./75% RH, up to 6 months): Unchanged
Purity % ([3]; Initial condition): 99.5%
Physical and chemical stability (summary) ([3]; placed for 6 months under long-term accelerated conditions): good physical and chemical stability

O=C(O)c1ccc2nc(CN3CCC(c4cccc5c4O[C@@H](c4ccc(Cl)cc4F)CO5)CC3)n(C[C@@H]3CCO3)c2c1 [Crystal form D of Compound A, 2-((4-((S)-3-(4-chloro-2-fluorophenyl)-2,3-dihydrobenzo[b][1,4]dioxan-5-yl)piperidin-1-yl)methyl)-1-(((S)-oxetan-2-yl)methyl)-1H-benzo[d]imidazole-6-carboxylic acid]
Hygroscopic weight gain 0.0% RH to 80.0% RH [1]: 1.95%
Crystal form after DVS [1]: Unchanged
Purity % ([2]; 40° C., 5 days): 98.4%
Purity % ([2]; 40° C., 10 days): 98.5%
Purity % ([2]; 40° C., 30 days): 98.5%
Purity % ([2]; 60° C., 5 days): 98.5%
Purity % ([2]; 60° C., 10 days): 98.6%
Purity % ([2]; 60° C., 30 days): 98.6%
Purity % ([2]; 75% RH, 5 days): 98.5%
Purity % ([2]; 75% RH, 10 days): 98.6%
Purity % ([2]; 75% RH, 30 days): 98.5%
Purity % ([2]; 92.5% RH, 5 days): 98.6%
Purity % ([2]; 92.5% RH, 10 days): 98.6%
Purity % ([2]; 92.5% RH, 30 days): 98.5%
Purity % [2, 4]: 98.5%
Purity % [2, 5]: 98.6%
Purity % [2, 6]: 98.6%
Purity % ([2]; Initial condition, 0 days): 98.5%
Physical and chemical stability (summary) ([2]; 30 days): good physical and chemical stability
Purity % ([3]; 25° C./60% RH, 1 month): 98.6%
Purity % ([3]; 25° C./60% RH, 2 months): 98.6%
Purity % ([3]; 25° C./60% RH, 3 months): 98.5%
Crystal form ([3]; 25° C./60% RH, up to 3 months): Unchanged
Purity % ([3]; 40° C./75% RH, 1 month): 98.6%
Purity % ([3]; 40° C./75% RH, 2 months): 98.4%
Purity % ([3]; 40° C./75% RH, 3 months): 98.3%
Crystal form ([3]; 40° C./75% RH, up to 3 months): Unchanged
Purity % ([3]; Initial condition): 98.5%
Physical and chemical stability (summary) ([3]; placed for 3 months under long-term accelerated conditions): good physical and chemical stability
